# ChEMBL document CHEMBL3351987, “Synthesis and biological evaluation of isoprenylated coumarins as potential anti-pancreatic cancer agents” (2014)
# Columns and labels:
# [1] = Cytotoxicity against human PANC1 cells under nutrient-deprived condition after 24 hrs by WST8 dye based assay; assay type: functional; details: PANC-1, 24 h, read-out: LC50 (the source's name)
# [2] = Cytotoxicity against human PANC1 cells under nutrient-rich condition after 24 hrs by WST8 dye based assay; assay type: functional; details: PANC-1, 24 h, read-out: LC50 (the source's name)
# PANC-1 [3] = experiment: Induction of apoptosis in human PANC1 cells under nutrient-deprived condition after 24 hrs; assay type: functional, cell-based
# PANC-1 [4] = experiment: Stimulation of cell growth in human PANC1 cells at 6.25 to 50 uM under nutrient-deprived condition after 24 hrs by WST8 dye based assay; assay type: functional
SMILES,CC50 [1] [µM],CC50 [2] [µM],Activity (PANC-1 [3]),Activity (PANC-1 [4]) [%]
CC(C)=CCC/C(C)=C/CC/C(C)=C/COc1cc2ccccc2oc1=O,12,> 100,–,–
CC(C)=CCC/C(C)=C/COc1cc2ccccc2oc1=O,37,> 100,–,–
CC(C)=CCOc1cc2ccccc2oc1=O,> 100,> 100,–,–
CC(C)=CCOc1ccc2oc(=O)ccc2c1,> 100,> 100,–,–
CC(C)=CCC/C(C)=C/COc1ccc2oc(=O)ccc2c1,12,> 100,–,–
CC(C)=CCC/C(C)=C/CC/C(C)=C/COc1ccc2oc(=O)ccc2c1,4,> 100,Dose-dependent effect,–
CC(C)=CCO,> 100,> 100,–,–
O=c1oc2ccccc2cc1O [3-HYDROXYCOUMARIN],> 100,> 100,–,–
O=c1ccc2cc(O)ccc2o1 [6-HYDROXYCOUMARIN],> 100,> 100,–,–
CC(C)=CCOc1ccc2ccc(=O)oc2c1 [7-PRENYLOXYCOUMARIN],83,> 100,–,–
CC(C)=CCC/C(C)=C/COc1ccc2ccc(=O)oc2c1 [AURAPTENE],21,> 100,–,–
CC(C)=CCC/C(C)=C/CC/C(C)=C/CO [FARNESOL],–,> 100,–,40
CC(C)=CCC/C(C)=C/CO [GERANIOL],–,> 100,–,20
O=c1ccc2ccc(O)cc2o1 [UMBELLIFERONE],> 100,> 100,–,–
CC(C)=CCC/C(C)=C/CC/C(C)=C/COc1ccc2ccc(=O)oc2c1 [UMBELLIPRENIN],18,> 100,–,–
